Experimental data from the NIST ThermoML archive (doi:10.1016/j.tca.2015.03.003).

Experiment: molar heat capacity at constant pressure; xn = mol fraction of the nth substance listed
Conditions: 100 kPa, Crystal of unknown type, Small sample (50 mg) DSC

[Cl-].[K+] [potassium chloride] + [Cl-].[Na+]
molar heat capacity at constant pressure [J/K/mol]
Conditions	298.15 K	300 K	350 K	400 K	450 K	470 K	500 K	550 K	600 K
x1 = 0.1	48.78	48.81	49.61	50.41	51.21	51.53	52.01	52.81	53.61
x1 = 0.2	51.33	51.36	52.11	52.86	53.61	53.91	54.36	55.11	55.86
x1 = 0.3	49.46	49.49	50.24	50.99	51.74	52.04	52.49	53.24	53.99
x1 = 0.4	50.77	50.8	51.4	52	52.6	52.84	53.2	53.8	54.4
x1 = 0.5	51.13	51.16	51.77	52.39	53.01	53.25	53.63	54.24	54.86
x1 = 0.6	48.93	48.96	49.81	50.66	51.51	51.85	52.36	53.21	54.06
x1 = 0.7	50.73	50.76	51.51	52.26	53.01	53.31	53.76	54.51	55.26
x1 = 0.75	50.05	50.07	50.42	50.77	51.12	51.26	51.47	51.82	–
x1 = 0.8	50.46	50.47	50.87	51.27	51.67	51.83	52.07	52.47	–
